Data on three compounds can be found in PMC9457798, “In Vivo Anticancer Evaluation of 6b, a Non-Covalent Imidazo[1,2-a]quinoxaline-Based Epidermal Growth Factor Receptor Inhibitor against Human Xenograft Tumor in Nude Mice” (Molecules, 2022).

For data set [1], the system named is PI3K/AKT pathway (AKT, P-AKT, PI3K, PTEN). The data set is described as follows: Western blot (immunoblotting) of tumor tissue from A549 xenograft mice. Format: in vivo, nude mice. Conditions: for PTEN protein level in tumors: gefitinib 30 mg/kg, 6b both doses, vs control untreated mice. How it is done:
Tissue that had been kept at −80 °C was removed and placed on ice for 5 min. A total of 20 mg of tissue was diced and placed in a 1.5 mL microcentrifuge tube kept on ice. The tissue was lysed to extract the proteins using RIPA lysis buffer with a cocktail (IX) of phosphatase and protease inhibitors, followed by sonication for 30 min. After that, the mixture was centrifuged, and the supernatant was collected for protein estimation using the Bradford assay. Thereafter, immunoblotting was performed using SDS-PAGE for the separation and resolving of individual proteins by their molecular weights. The proteins were further transferred to nitrocellulose membranes, and blocking was performed in 3% powdered milk solution. Further, the membrane was washed using TBST buffer and was incubated in primary antibody (CST) for 3 h. After incubation, the membrane was washed in TBST and re-incubated for 1h in secondary antibody. The immune complex was detected using ChemiDoc^TM (BioRad) after washing the membrane with TBST [46].
In general terms: A western blot detects proteins with antibodies after separation by electrophoresis.

Data set [2] relates to Twist, Zeb1, and Hif-1α gene expression. The data set is described as follows: qPCR analysis of Twist, Zeb1 and Hif-1α in tumor tissue from treated mice. Format: in vivo, nude mice. Conditions: vs untreated mice. For orientation: In qPCR the cycle at which signal appears reflects the starting amount.
Data set [3] in a line: In vitro microsomal stability, human liver microsomes. The conditions noted are these: for microsomal CLint at 1 µM / half-life at 1 µM / remaining at 0.5 h, 1 µM: human, liver microsomes, 0.5 mg/mL microsomes; for microsomal CLint at 1 µM / half-life at 1 µM: pH 7.4, NADPH; for microsomal CLint at 1 µM: read-out: CLint HLM; for half-life at 1 µM: read-out: t½ HLM; for remaining at 0.5 h, 1 µM: NADPH 1 mM, pH 7.4, 37 °C, read-out: % Remaining after 30 min HLM. Format: in vitro ADME.
Protocol: (§1) Compounds were incubated at a final concentration of 1 µM with human (HLM) and mouse (MLM) at 0.5 mg/mL and NADPH (1 mM) in 100 mM phosphate buffer (pH 7.4) at 37 °C. The reactions were terminated at 0 and 30 min by the addition of cold acetonitrile containing propranolol (50 ng/mL) as an internal standard.

Another data set has as its system EGFR. Further details: method as in PMID 25342981, PMID 27121209. The conditions noted are these: earlier report of the authors; read-out: IC50 (EGFR inhibition); cited from earlier work.
The subject of data set [4] is H1975 lung cancer cells with mutant EGFR (L858R/T790M). The conditions noted are these: gefitinib-resistant H1975, EGFR L858R/T790M; earlier report of the authors; read-out: IC50 (anti-proliferative, H1975 cells); cited from earlier work.
A short description of data set [5]: In vitro microsomal stability, mouse liver microsomes. For orientation: Microsomes from liver hold many membrane-bound enzymes, among them those of drug oxidation.
Protocol: as §1
In the next data set the test system is A549 xenograft tumor. In words: A549-cell-induced lung cancer xenograft model in nude mice. The conditions noted are these: for % tumor growth inhibition: intraperitoneally once a week, 21 days; for Average tumor weight: compared with the other groups; for Cytotoxic effect on the tumor (H&E staining): excised tumors.
The nature of another data set: in vitro. Conditions: mouse, microsomes, pH 7.4.
[6] abbreviates: mouse, liver microsomes, pH 7.4.

Protocol for A549 xenograft tumor: The animal experiments were performed as per the guidelines of the Committee for the Purpose of Control and Supervision of Experiments on Animals (CPCSEA) with the approval of the Institutional Animal Ethics Committee (# IAEC/19/14). Four–five-week-old male athymic nude mice were procured from Vivo Bio Tech Ltd., Hyderabad, India. Animals were kept in an individually ventilated caging (IVC) system in a pathogen-free environment with standard conditions of temperature: 22 ± 1 °C, humidity: 50 ± 10%, and a 12 h light/dark cycle maintained in the National Toxicology Center (NTC) in the National Institute of Pharmaceutical Education and Research (NIPER), Mohali. Throughout the study, animals were fed with a standard rodent chow diet and water ad libitum.
Xenograft, the nude mice model, was developed by injecting A549 (1 × 10 ^6 cells, suspended in Matrigel™) subcutaneously into the right flank of each mouse. Tumor-bearing mice were randomly divided into four groups with seven animals per group after attaining an anticipated tumor volume of >80 mm^3. […] Treatment was given intraperitoneally once a week for a period of 21 days. Tumor volume and body weight were measured weekly during the study. Vernier caliper was used to measure the size of A549-cell-induced tumors weekly, starting from two weeks after inoculation.
Tumors were surgically removed from animals, sliced, and fixed in 10% v/v formal saline. For the histological study, the sliced tumors were processed and embedded in paraffin; sections of 5 µm were mounted on poly-L-lysine-coated glass slides. Sections were then stained with hematoxylin & eosin (H&E) to observe the structural alterations as described.

In general, share remaining refers to what is left of the initial amount, in per cent. A word on the IC50: it is the concentration at which inhibition is half-maximal. As to `COc1cc(C=Nc2c(C#N)nc3c(-c4cc(OC)c(OC)c(OC)c4)nc4ccccc4n23)cc(OC)c1OC` [6b, 1-((3,4,5-Trimethoxybenzylidene)amino)-4-(3,4,5-trimethoxyphenyl)imidazo[1,2-a]quinoxaline-2-carbonitrile], the “AKT, P-AKT and PI3K protein level in tumor masses” value in data set [1] (LD (10 mg/kg) and HD (30 mg/kg), vs untreated mice) is “decreased”. The “PTEN protein level in tumors” value in data set [1] is recorded as “increased”. In data set [2], the “Expression of EMT-regulating genes Twist and Zeb1 in tumors” value was “decreased”; the “Expression of the Hif-1α gene in tumors” value is reported as “decreased”. In data set [3], the “Stability in human liver microsomes (in words)” value is on record as “good stability”; the microsomal CLint at 1 µM was determined as 80 µL/min/mg; the half-life at 1 µM is 0.287 h; the fraction remaining at 0.5 h, 1 µM turned out to be 29.9%. The IC50 with EGFR was 0.211 µM. Further, the IC50 in data set [4] was 3.65 µM. For the same compound, the “Stability in mouse liver microsomes (in words)” value in data set [5] is listed as “good stability”. In data set [5] (setting [6]), this compound displayed a half-life at 1 µM of 0.602 h; a microsomal CLint at 1 µM of 38 µL/min/mg; a share remaining at 0.5 h, 1 µM of 56.2%. Besides, in the data set on A549 xenograft tumor (10 mg/kg (LD)), the “% tumor growth inhibition” value was found to be 16%. Moreover, in the data set on A549 xenograft tumor (30 mg/kg, i.p.), the “Kaplan–Meier survival” value is “improved the survival of the mice” and the Average tumor weight result is on record as “lower”. In addition, in the data set with A549 xenograft tumor (30 mg/kg, i.p., vs tumor control), the “Effect on tumor volume / size” value is “significantly decreased the size of the tumors”. Besides, the “% tumor growth inhibition” value with A549 xenograft tumor (30 mg/kg) is recorded as 33%. The “Cytotoxic effect on the tumor (H&E staining)” value in the data set on A549 xenograft tumor was “marked cytotoxic damage”.

As for `NC(=O)N1c2ccccc2C=Cc2ccccc21` [Carbamazepine, reference compound], in data set [3], the microsomal CLint at 1 µM came to 3 µL/min/mg; the half-life at 1 µM was 7.97 h; the share remaining at 0.5 h, 1 µM amounted to 95.7%. Moreover, in “in vitro”, the half-life at 1 µM is 2.17 h; the microsomal CLint at 1 µM came to 11 µL/min/mg; the amount remaining at 0.5 h, 1 µM amounted to 85.2%.

Consider `COc1cc2ncnc(Nc3ccc(F)c(Cl)c3)c2cc1OCCCN1CCOCC1` [gefitinib, reference compound], for which, in data set [1], the “PTEN protein level in tumors” value is given as “increased”. In addition, the “Expression of the Hif-1α gene in tumors” value in data set [2] was “decreased”. In the data set on A549 xenograft tumor (30 mg/kg, i.p.), the “Kaplan–Meier survival” value is listed as “improved the survival of the mice” and the Average tumor weight result was “lower”. Besides, the “Cytotoxic effect on the tumor (H&E staining)” value in the data set on A549 xenograft tumor is “marked cytotoxic damage”. Moreover, in the data set on A549 xenograft tumor (mouse, in vivo), the “Effect on tumor volume / size” value is listed as “suppression of tumor volume to some extent”.
